Assay results taken from the CheMixHub viscosity set.
Values joined by “and” are separate entries in the source; they are usually repeats but may differ in a detail not shown here. Equal entries are not always repeated.

Assay: xn = mol fraction of the nth substance listed

CCC(C)=O + Cc1ccccc1
viscosity, 101 kPa
Details	298.15 K	303.15 K	308.15 K
x1 = 0.1009	–	0.516 mPa·s	–
x1 = 0.2412	–	0.496 mPa·s	–
x1 = 0.3948	–	0.475 mPa·s	–
x1 = 0.524	–	0.458 mPa·s	–
x1 = 0.7006	–	0.431 mPa·s	–
x1 = 0.8899	–	0.397 mPa·s	–
x2 = 0.0856	0.4052 mPa·s and 0.4052 mPa·s	0.3822 mPa·s and 0.3822 mPa·s	0.3593 mPa·s and 0.3593 mPa·s
x2 = 0.1724	0.4244 mPa·s and 0.4244 mPa·s	0.3996 mPa·s and 0.3996 mPa·s	0.3756 mPa·s and 0.3756 mPa·s
x2 = 0.2624	0.4439 mPa·s and 0.4439 mPa·s	0.4176 mPa·s and 0.4176 mPa·s	0.3922 mPa·s and 0.3922 mPa·s
x2 = 0.337	0.4594 mPa·s and 0.4594 mPa·s	0.432 mPa·s and 0.432 mPa·s	0.4061 mPa·s and 0.4061 mPa·s
x2 = 0.433	0.4781 mPa·s and 0.4781 mPa·s	0.4494 mPa·s and 0.4494 mPa·s	0.423 mPa·s and 0.423 mPa·s
x2 = 0.5555	0.4987 mPa·s and 0.4987 mPa·s	0.4688 mPa·s and 0.4688 mPa·s	0.4417 mPa·s and 0.4417 mPa·s
x2 = 0.66	0.5145 mPa·s and 0.5145 mPa·s	0.4844 mPa·s and 0.4844 mPa·s	0.4575 mPa·s and 0.4575 mPa·s
x2 = 0.769	0.5308 mPa·s and 0.5308 mPa·s	0.5002 mPa·s and 0.5002 mPa·s	0.4738 mPa·s and 0.4738 mPa·s
x2 = 0.8831	0.5472 mPa·s and 0.5472 mPa·s	0.5168 mPa·s and 0.5168 mPa·s	0.4909 mPa·s and 0.4909 mPa·s

COC(C)=O + Cc1ccccc1C
viscosity [mPa·s], 101 kPa
Details	298.15 K	308.15 K
x1 = 0.0434	0.731	0.636
x1 = 0.1489	0.668	0.587
x1 = 0.2499	0.616	0.546
x1 = 0.3517	0.57	0.508
x1 = 0.444	0.533	0.478
x1 = 0.4974	0.513	0.462
x1 = 0.5506	0.495	0.447
x1 = 0.6497	0.465	0.422
x1 = 0.7494	0.438	0.399
x1 = 0.851	0.414	0.378
x1 = 0.9458	0.394	0.36

COc1ccccc1N + ClC(Cl)(Cl)Cl
viscosity [mPa·s], 100 kPa
Details	x2 = 0.0821	x2 = 0.1726	x2 = 0.2547	x2 = 0.3403	x2 = 0.4788	x2 = 0.5789	x2 = 0.6781	x2 = 0.7641	x2 = 0.8447
298.15 K	5.011	4.611	4.247	3.866	3.249	2.8	2.355	1.967	1.603
303.15 K	4.596	4.234	3.904	3.559	2.996	2.587	2.179	1.824	1.489
308.15 K	4.218	3.892	3.593	3.28	2.768	2.394	2.02	1.694	1.385
313.15 K	3.917	3.619	3.346	3.057	2.585	2.239	1.892	1.587	1.299
318.15 K	3.643	3.371	3.121	2.856	2.42	2.099	1.776	1.491	1.221
